Measurements published in patent publication US12679839B2, “Cyclin-dependent kinase 7 (CDK7) non-covalent inhibitors” (JANSSEN PHARMACEUTICA NV, priority 2020, dated 2026).

Key:
[1] = target: T1, CDK7/Cyclin H/MAT-1 complex (Homo sapiens, UniProt P50613); assay: Flint assay, end-point fluorescence (5 nM CDK7/Cyclin H/MAT-1 complex); format: biochemical; conditions: for IC50: read-out: CDK7 (5 nM) pIC50 (converted)
T1 construct: Human CDK7 (amino acids 1-346); His6 (N); TEV protease cleavage site (N); made in house; host or cells: baculovirus-SF9 insect cells
T1 sequence (P50613 whole entry, the tested form may be a part): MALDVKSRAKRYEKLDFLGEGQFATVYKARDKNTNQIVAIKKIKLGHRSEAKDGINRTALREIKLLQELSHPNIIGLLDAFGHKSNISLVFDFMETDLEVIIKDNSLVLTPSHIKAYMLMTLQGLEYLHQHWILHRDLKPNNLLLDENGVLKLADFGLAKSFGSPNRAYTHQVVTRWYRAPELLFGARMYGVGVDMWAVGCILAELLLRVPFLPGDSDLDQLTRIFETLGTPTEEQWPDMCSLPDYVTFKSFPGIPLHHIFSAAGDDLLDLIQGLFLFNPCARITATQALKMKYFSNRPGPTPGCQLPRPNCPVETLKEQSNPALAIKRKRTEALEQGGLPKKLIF
T1 sequence (P51946 whole entry partner, the tested form may be a part): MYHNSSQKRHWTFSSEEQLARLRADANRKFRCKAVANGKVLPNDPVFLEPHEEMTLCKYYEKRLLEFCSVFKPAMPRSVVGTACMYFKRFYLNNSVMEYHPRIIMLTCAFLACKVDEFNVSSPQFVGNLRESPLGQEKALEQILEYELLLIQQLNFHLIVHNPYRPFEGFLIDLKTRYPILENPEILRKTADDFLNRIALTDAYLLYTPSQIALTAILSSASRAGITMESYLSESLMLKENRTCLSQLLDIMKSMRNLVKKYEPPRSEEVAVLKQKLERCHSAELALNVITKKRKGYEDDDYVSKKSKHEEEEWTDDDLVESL
T1 sequence (P51948 whole entry partner, the tested form may be a part): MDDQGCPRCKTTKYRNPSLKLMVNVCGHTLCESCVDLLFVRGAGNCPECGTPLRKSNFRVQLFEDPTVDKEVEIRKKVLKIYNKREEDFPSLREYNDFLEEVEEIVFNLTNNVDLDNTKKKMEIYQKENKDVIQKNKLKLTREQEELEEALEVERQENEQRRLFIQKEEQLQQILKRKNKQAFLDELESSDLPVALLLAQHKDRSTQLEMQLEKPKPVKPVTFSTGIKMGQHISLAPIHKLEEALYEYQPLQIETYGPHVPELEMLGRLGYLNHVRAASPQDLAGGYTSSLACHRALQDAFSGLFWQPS
Description: Human CDK7 (amino acids 1-346) containing an N-terminal His6-tag followed by a tobacco etch virus (TEV) protease cleavage site, human MAT1 (amino acids 1-309) and human cyclin H (amino acids 1-323) were co-expressed in the baculovirus-SF9 insect cell expression system to generate a trimeric complex. Cell pellets were collected 72 h post-infection and were resuspended by Dounce homogenization in 20 mM Hepes-NaOH (pH 8.0), 300 mM NaCl, 10% glycerol, 2 mM dithiothreitol DTT), and 20 mM Imidazole supplemented with cOmplete™ Protease Inhibitor Cocktail (Roche) and 25 U/mL Benzonase® Nuclease HC according to the manufacturer's instructions. Cells were lysed by passing through a Microfluidics M110Y Microfluidizer 3 times at 600 kPa followed by centrifugation at 38,000×g at 4° C. for 1 hour. The supernatant was loaded onto a pre-equilibrated HisTrap HP column and eluted in 20 mM Hepes-NaOH (pH 8.0), 50 mM NaCl, 10% glycerol, 2 mM DTT, and 400 mM Imidazole. The eluate was further purified by gel filtration on a Superdex S200 16/60 column and eluted with 20 mM Hepes-NaOH (pH 7.5), 50 mM NaCl, 10% Glycerol, 2 mM DTT. Fractions containing a trimeric complex of CDK7, cyclin H, and MAT1 in a 1:1:1 ratio were pooled and concentrated to 3 mg/mL in a 10 kDa MWCO concentrator, and diluted to a final concentration of 1.6 mg/mL in 11.1 mM Hepes-NaOH (pH 8.0), 27.8 mM NaCl, 1.1 mM DTT and 50% glycerol.
Compounds with potencies approaching the limit of detection of the assay (IC50≤10 nM) were further assessed in a more sensitive fluorescence end-point assay.
[formula] where νo is the rate in the absence of inhibitor, νmin is the rate at highest inhibitor concentration, and h is the Hill coefficient. Flint Assay (5 nM CDK7/Cyclin H/MAT-1 Complex)
The continuous absorbance assay was converted to an end-point fluorescence assay following the NADH fluorescence signal decrease at the excitation and emission wavelengths of 340 nm and 440 nm, respectively.
Under the same concentrations of substrates and coupling reagents used in the absorbance assay, the fluorescence assay was performed at a reduced concentration of the CDK7/Cyclin H/MAT-1 complex of 5 nM (final concentration) with a reaction time of 24 hours. The percent of inhibition was calculated by the following equation. Percent of inhibition=(Sample−NC)/(PC−NC)*100 where NC is the mean if negative control (reaction without inhibitor), and PC is the mean of positive control (reaction with complete inhibition).
Dosing curves were fitted using the following equation to obtain IC50: Y=Bottom+(Top−Bottom)/(1+10^((log IC50−X)*Hill slope)) where X=log10 of the compound concentration; top and bottom can be defined by PC and NC respectively. Imaging-Based Cellular RNA PolII Ser5 Phosphorylation Assay

[2] = target: T1, CDK7/Cyclin H/MAT-1 complex; assay: Absorbance kinetic assay (20 nM CDK7/Cyclin H/MAT-1 complex); format: biochemical; conditions: for IC50: read-out: CDK7 (20 nM) pIC50 (converted)
Outline: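 Trimeric complex (His6-TEV CDK7 1-346, MAT1 1-309, cyclin H 1-323) from Sf9 cells, at 20 nM, phosphorylating RNA Pol II-derived CDK7/9-tide; ADP coupled via PK/LDH to NADH depletion read at 340 nm every 2 min for 8 h. Steady-state slopes gave % inhibition; IC50 from 11-point Hill fit.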

Compound: C[C@@H]1Cc2cnc(NC3CCOCC3)nc2CN1C(=O)[C@@H]1CC[C@@H](N(C)C)CN1c1ccccc1 (mixture of isomers) [Compound 167]
- CDK7 (5 nM) pIC50 [1]: 6.95
- CDK7 (20 nM) pIC50 [2]: 6.25

Compound: C[C@@H]1Cc2cnc(N[C@H]3CCC(=O)N(C)C3)nc2CN1C(=O)[C@H]1CCN(C)C[C@@H]1c1ccccc1 (relative stereo) [Compound 7]
- IC50 [1]: 4.47 nM
- IC50 [2]: < 9.77 nM

Compound: C[C@@H]1Cc2cnc(N[C@@H]3CCOC4(CCC4)C3)nc2CN1C(=O)[C@H]1CCN(C)C[C@@H]1c1ccccc1 (relative stereo) [Compound 8]
- IC50 [1]: 2.69 nM
- IC50 [2]: < 9.77 nM

Compound: C[C@@H]1Cc2cnc(N[C@H]3CCOC4(CCC4)C3)nc2CN1C(=O)[C@H]1CCN(C)C[C@@H]1c1ccccc1 (relative stereo) [Compound 9]
- IC50 [1]: 6.17 nM
- IC50 [2]: < 9.77 nM

Compound: C[C@@H]1Cc2cnc(N[C@@H]3CCOC(C)(C)C3)nc2CN1C(=O)[C@H]1CCN(C)C[C@@H]1c1ccccc1 (relative stereo) [Compound 40]
- IC50 [1]: 7.24 nM
- IC50 [2]: 11 nM

Compound: Cc1ccc([C@@H]2CN(C)CC[C@H]2C(=O)N2Cc3nc(NC4CCOCC4)ncc3C[C@H]2C)cn1 (relative stereo) [Compound 108]
- IC50 [1]: 19.5 nM
- IC50 [2]: 105 nM

Compound: CO[C@H]1CC[C@H](Nc2ncc3c(n2)CN(C(=O)[C@H]2CCN(C)C[C@@H]2c2ccc(C)nc2)[C@H](C)C3)CC1 (relative stereo) [Compound 110]
- IC50 [1]: 12.9 nM
- IC50 [2]: < 9.77 nM

Compound: Cc1cccc([C@H]2CN(C)CC[C@@H]2C(=O)N2Cc3nc(Nc4cnn(C)c4)ncc3C[C@H]2C)c1 (relative stereo) [Compound 126]
- IC50 [1]: 3.72 nM
- IC50 [2]: 15.5 nM

Compound: C[C@@H]1Cc2cnc(NCc3ccn(C)n3)nc2CN1C(=O)[C@@H]1CCN(C)C[C@H]1c1cccc(OC(F)(F)F)c1 (relative stereo) [Compound 127]
- IC50 [1]: 75.9 nM
- IC50 [2]: 234 nM

Compound: C[C@@H]1Cc2cnc(NCc3ccn(C)n3)nc2CN1C(=O)[C@H]1CCN(C)C[C@@H]1c1cccc(OC(F)(F)F)c1 (relative stereo) [Compound 128]
- IC50 [1]: 6.76 nM
- IC50 [2]: 18.6 nM

Compound: C[C@H]1Cc2cnc(NCc3ccn(C)n3)cc2CN1C(=O)[C@H]1CCN(C)C[C@@H]1c1ccccc1 (relative stereo) [Compound 174]
- IC50 [1]: 2.63 nM
- IC50 [2]: 11.2 nM

Compound: C[C@H]1Cc2cnc(Nc3cnn(C)c3)cc2CN1C(=O)[C@H]1CCN(C)C[C@@H]1c1ccccc1 (relative stereo) [Compound 176]
- IC50 [1]: 9.12 nM
- IC50 [2]: 22.9 nM

Compound: Cc1cccc([C@H]2CN(C)CC[C@@H]2C(=O)N2Cc3nc(Nc4cnn(C)c4)ncc3[C@@H]3C[C@@H]32)c1 (relative stereo) [Compound 203]
- IC50 [1]: 5.37 nM
- IC50 [2]: 17 nM

Compound: C[C@H]1Cc2cnc(NC3CCOCC3)nc2CN1C(=O)N1CCN(C)C[C@H]1c1cccc(F)c1 (relative stereo) [Compound 212]
- IC50 [1]: 4.79 nM
- IC50 [2]: 13.2 nM

Compound: C[C@@H]1Cc2cnc(N[C@H](C)c3ccn(C)n3)nc2CN1C(=O)[C@H]1CCN(C)C[C@@H]1c1ccccc1 (single isomer, unassigned) [Compound 54]
- IC50 [1]: 5.13 nM
- IC50 [2]: 12.3 nM

Compound: C[C@H](Nc1ncc2c(n1)CN(C(=O)[C@H]1CCN(C)C[C@@H]1c1ccccc1)[C@H](C)C2)c1ccn(C)n1 (single isomer, unassigned) [Compound 55]
- IC50 [1]: 38.9 nM
- IC50 [2]: 141 nM

Compound: C[C@@H]1Cc2cnc(NCc3ccccc3)nc2CN1C(=O)[C@H]1CCN(CC2COC2)C[C@@H]1c1ccccc1 (single isomer, unassigned) [Compound 155]
- CDK7 (5 nM) pIC50 [1]: 8.2
- CDK7 (20 nM) pIC50 [2]: >8.01

Compound: CC(C)N1CC[C@H](C(=O)N2Cc3nc(NC4CCOCC4)ncc3C[C@H]2C)[C@@H](c2cccc(Cl)c2)C1 (single isomer, unassigned) [Compound 160]
- CDK7 (5 nM) pIC50 [1]: 8.58
- CDK7 (20 nM) pIC50 [2]: 6.96

Compound: C[C@H]1Cc2cnc(NC3CCOCC3)cc2CN1C(=O)[C@H]1CCN(C)C[C@@H]1c1ccccc1 (single isomer, unassigned) [Compound 171a]
- IC50 [1]: 5.75 nM
- IC50 [2]: 9.77 nM

Compound: C[C@H]1Cc2cnc(NC3(c4ccccc4)COC3)cc2CN1C(=O)[C@H]1CCN(C)C[C@@H]1c1ccccc1 (single isomer, unassigned) [Compound 175]
- CDK7 (5 nM) pIC50 [1]: 8.13
- CDK7 (20 nM) pIC50 [2]: 7.52

Compound: CN1CC[C@H](C(=O)N2Cc3nc(NCc4ccn(C)n4)ncc3CC2(C)C)[C@@H](c2ccccc2)C1 (single isomer, unassigned) [Compound 191]
- CDK7 (5 nM) pIC50 [1]: 7.41
- CDK7 (20 nM) pIC50 [2]: 6.53

Compound: C[C@@H]1Cc2cnc(NCc3ccn(C)n3)nc2CN1C(=O)[C@H]1CCN(C)C[C@@H]1c1ccccc1 [Compound 1]
- CDK7 (5 nM) pIC50 [1]: 8.61
- CDK7 (20 nM) pIC50 [2]: 8.01

Compound: C[C@@H]1Cc2cnc(NC3CCC(OCC4CC4)CC3)nc2CN1C(=O)[C@H]1CCN(C)C[C@@H]1c1ccccc1 (some centres unmarked) [Compound 3]
- CDK7 (5 nM) pIC50 [1]: 8.3
- CDK7 (20 nM) pIC50 [2]: >8.01

Compound: CO[C@]1(C)CC[C@@H](Nc2ncc3c(n2)CN(C(=O)[C@H]2CCN(C)C[C@@H]2c2ccccc2)[C@H](C)C3)CC1 [Compound 10]
- CDK7 (5 nM) pIC50 [1]: 8.11
- CDK7 (20 nM) pIC50 [2]: >8.01

Compound: C[C@@H]1Cc2cnc(N[C@H]3CC[C@H](O)CC3)nc2CN1C(=O)[C@H]1CCN(C)C[C@@H]1c1ccccc1 [Compound 12]
- CDK7 (5 nM) pIC50 [1]: 8.49
- CDK7 (20 nM) pIC50 [2]: >8.01

Compound: C[C@@H]1Cc2cnc(N[C@H]3CC[C@H](C)CC3)nc2CN1C(=O)[C@H]1CCN(C)C[C@@H]1c1ccccc1 [Compound 13]
- CDK7 (5 nM) pIC50 [1]: 8.85
- CDK7 (20 nM) pIC50 [2]: 8.01

Compound: C[C@H](Nc1ncc2c(n1)CN(C(=O)[C@H]1CCN(C)C[C@@H]1c1ccccc1)[C@H](C)C2)c1ccccn1 [Compound 20]
- CDK7 (5 nM) pIC50 [1]: 8.19
- CDK7 (20 nM) pIC50 [2]: 8.01

Compound: C[C@@H]1Cc2cnc(N[C@H](C)c3ccccc3)nc2CN1C(=O)[C@H]1CCN(C)C[C@@H]1c1ccccc1 [Compound 22]
- CDK7 (5 nM) pIC50 [1]: 8.19
- CDK7 (20 nM) pIC50 [2]: 8.01

Compound: C[C@@H]1Cc2cnc(NC3Cc4ccccc4C3)nc2CN1C(=O)[C@H]1CCN(C)C[C@@H]1c1ccccc1 [Compound 29]
- CDK7 (5 nM) pIC50 [1]: 8.55
- CDK7 (20 nM) pIC50 [2]: 8.01

Compound: CO[C@H]1CC[C@H](Nc2ncc3c(n2)CN(C(=O)[C@H]2CCN(C)C[C@@H]2c2ccccc2)[C@H](C)C3)CC1 [Compound 37]
- CDK7 (5 nM) pIC50 [1]: 8.6
- CDK7 (20 nM) pIC50 [2]: 8.01

Compound: C[C@@H]1Cc2cnc(NCc3ccccc3)nc2CN1C(=O)[C@H]1CCN(C)C[C@@H]1c1ccccc1 [Compound 43]
- CDK7 (5 nM) pIC50 [1]: 8.11
- CDK7 (20 nM) pIC50 [2]: 8.01

Compound: C[C@@H]1Cc2cnc(NC3CCS(=O)(=O)CC3)nc2CN1C(=O)[C@H]1CCN(C)C[C@@H]1c1ccccc1 [Compound 44]
- CDK7 (5 nM) pIC50 [1]: 8.04
- CDK7 (20 nM) pIC50 [2]: >7.7

Compound: C[C@@H]1Cc2cnc(NC3CCN(CC(F)(F)F)CC3)nc2CN1C(=O)[C@H]1CCN(C)C[C@@H]1c1ccccc1 [Compound 45]
- CDK7 (5 nM) pIC50 [1]: 7.65
- CDK7 (20 nM) pIC50 [2]: 7.62

Compound: C[C@@H]1Cc2cnc(NCc3ccsc3)nc2CN1C(=O)[C@H]1CCN(C)C[C@@H]1c1ccccc1 [Compound 48]
- CDK7 (5 nM) pIC50 [1]: 7.92
- CDK7 (20 nM) pIC50 [2]: 7.59

Compound: C[C@@H]1Cc2cnc(NCC3CCS(=O)(=O)C3)nc2CN1C(=O)[C@H]1CCN(C)C[C@@H]1c1ccccc1 (some centres unmarked) [Compound 49]
- CDK7 (5 nM) pIC50 [1]: 7.2
- CDK7 (20 nM) pIC50 [2]: 6.62

Compound: Cc1ccc(CNc2ncc3c(n2)CN(C(=O)[C@H]2CCN(C)C[C@@H]2c2ccccc2)[C@H](C)C3)o1 [Compound 50]
- CDK7 (5 nM) pIC50 [1]: 8.05
- CDK7 (20 nM) pIC50 [2]: 7.6

Compound: C[C@@H]1Cc2cnc(NCc3cc[nH]n3)nc2CN1C(=O)[C@H]1CCN(C)C[C@@H]1c1ccccc1 [Compound 51]
- IC50 [1]: 8.32 nM
- IC50 [2]: 51.3 nM
